Data set [1] relates to Plasmodium falciparum. Briefly: Antiplasmodial activity against Plasmodium falciparum Dd2. The class given is functional, organism-based.
Data set [2] has as its system Plasmodium falciparum. Description: Antiplasmodial activity against Plasmodium falciparum Dd2 harboring DHODH mutant. The class given is functional, organism-based.
Data set [3] deals with Plasmodium falciparum. Briefly: Antiplasmodial activity against Plasmodium falciparum Dd2 harboring HSP90 mutant. The class given is functional, organism-based.
Data set [4] deals with Plasmodium falciparum. Briefly: Antiplasmodial activity against Plasmodium falciparum Dd2 harboring CRT mutant. The class given is functional, organism-based.
The test system of data set [5] is Plasmodium falciparum. Briefly: Antiplasmodial activity against Plasmodium falciparum Dd2 harboring CYTb-Qi mutant. The class given is functional, organism-based.
Data set [6] can be described thus: Selectivity index, ratio of IC50 for human A549 cells to IC50 for Plasmodium falciparum. It counts as toxicity, cell-based. The conditions noted are these: read-out: Ratio IC50.
Data set [7] has as its target Voltage-gated inwardly rectifying potassium channel KCNH2 (Homo sapiens, UniProt Q12809). Briefly: Inhibition of human ERG.
Data set [8] in a line: Clearance in rat hepatocytes assessed per 1E6 cells. The class given is ADME, cell-based, Hepatocyte. As to conditions: read-out: CLH.
The nature of data set [9]: Clearance in human liver microsomes. As to conditions: read-out: CLH. The class given is ADME. For orientation: Microsomes from liver hold many membrane-bound enzymes, among them those of drug oxidation.
A short description of data set [10]: Clearance in mouse liver microsomes. The class given is ADME. As to conditions: read-out: CLH.
A short description of data set [11]: Aqueous solubility of the compound. It counts as physicochemical. As to conditions: buffer.
Data set [12] is described as follows: Lipophilicity, log D of the compound. As to conditions: octanol/water. It counts as physicochemical.
Data set [13] is described as follows: Fraction unbound in human plasma. It counts as ADME, cell-free.
Another data set concerns the target Cytochrome P450 3A4 (Homo sapiens, UniProt P08684). Briefly: Inhibition of CYP3A4 (unknown origin). The class given is ADME.
The next data set addresses Cytochrome P450 2D6 (Homo sapiens, UniProt P10635). Briefly: Inhibition of CYP2D6 (unknown origin). The class given is ADME.
In the next data set the target is Cytochrome P450 2C9 (Homo sapiens, UniProt P11712). Briefly: Inhibition of CYP2C9 (unknown origin). The class given is ADME.
A further data set has as its target Cytochrome P450 2C19 (Homo sapiens, UniProt P33261). Description: Inhibition of CYP2C19 (unknown origin). It counts as ADME.
Another data set addresses T1, Cytochrome P450 1A2 (Homo sapiens, UniProt P05177).
T1 sequence (P05177 whole entry): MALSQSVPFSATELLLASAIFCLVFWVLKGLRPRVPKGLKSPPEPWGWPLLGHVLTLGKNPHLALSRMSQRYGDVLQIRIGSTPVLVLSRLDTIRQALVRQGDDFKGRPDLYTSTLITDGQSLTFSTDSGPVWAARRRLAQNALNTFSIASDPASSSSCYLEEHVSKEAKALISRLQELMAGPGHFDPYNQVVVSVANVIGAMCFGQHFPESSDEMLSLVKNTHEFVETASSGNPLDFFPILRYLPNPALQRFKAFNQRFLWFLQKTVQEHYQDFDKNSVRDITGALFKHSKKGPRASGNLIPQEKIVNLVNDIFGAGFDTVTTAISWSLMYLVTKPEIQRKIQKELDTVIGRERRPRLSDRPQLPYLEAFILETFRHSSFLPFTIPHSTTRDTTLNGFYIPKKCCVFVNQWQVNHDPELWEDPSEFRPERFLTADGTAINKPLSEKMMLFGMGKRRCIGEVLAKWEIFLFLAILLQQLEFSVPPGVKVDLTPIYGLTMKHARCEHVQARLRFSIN
Description: Inhibition of CYP1A2 (unknown origin). It counts as ADME.

Data set [14] deals with Plasmodium falciparum. Briefly: microbe, parasite or virus in culture. As to conditions: 7G8, 72 h.
Description: Antiplasmodial activity against Plasmodium falciparum 7G8 after 72 hrs by SYBR I method
In data set [15] the test system is Plasmodium falciparum. Description: microbe, parasite or virus in culture. The conditions noted are these: W2, 72 h.
Description: Antiplasmodial activity against Plasmodium falciparum W2 after 72 hrs by SYBR I method
Data set [16] concerns Plasmodium falciparum. Briefly: microbe, parasite or virus in culture. The conditions noted are these: SB1, 72 h.
Description: Antiplasmodial activity against Plasmodium falciparum SB1 after 72 hrs by SYBR I method
Data set [17] has as its system Plasmodium falciparum. Briefly: microbe, parasite or virus in culture. As to conditions: Dd2, 72 h.
Description: Antiplasmodial activity against Plasmodium falciparum Dd2 after 72 hrs by SYBR I method
The test system of data set [18] is Plasmodium falciparum. Description: microbe, parasite or virus in culture. The conditions noted are these: NF54, 72 h.
Data set [19] relates to Plasmodium falciparum. Description: microbe, parasite or virus in culture. As to conditions: K1, 72 h.
The subject of data set [20] is Plasmodium falciparum. Description: Antiplasmodial activity against chloroquine and pyrimethamine-sensitive Plasmodium falciparum 3D7A assessed as parasite reduction ratio at 10 times IC50 after 48 hrs. It counts as functional, organism-based.
A further data set has as its system Plasmodium berghei. Description: Antiplasmodial activity against Plasmodium berghei ANKA expressing GFP infected in BALB/c mouse assessed as host survival days at 30 mg/kg, po qd for 4 days. It counts as functional.

≈ marks a conversion by molar mass, not a printed value. Calls of active or inactive are those of the source. The rule behind the calls is not given here. Some results are limits rather than exact numbers.

Voltage-gated inwardly rectifying potassium channel KCNH2, sequence (Q12809 whole entry): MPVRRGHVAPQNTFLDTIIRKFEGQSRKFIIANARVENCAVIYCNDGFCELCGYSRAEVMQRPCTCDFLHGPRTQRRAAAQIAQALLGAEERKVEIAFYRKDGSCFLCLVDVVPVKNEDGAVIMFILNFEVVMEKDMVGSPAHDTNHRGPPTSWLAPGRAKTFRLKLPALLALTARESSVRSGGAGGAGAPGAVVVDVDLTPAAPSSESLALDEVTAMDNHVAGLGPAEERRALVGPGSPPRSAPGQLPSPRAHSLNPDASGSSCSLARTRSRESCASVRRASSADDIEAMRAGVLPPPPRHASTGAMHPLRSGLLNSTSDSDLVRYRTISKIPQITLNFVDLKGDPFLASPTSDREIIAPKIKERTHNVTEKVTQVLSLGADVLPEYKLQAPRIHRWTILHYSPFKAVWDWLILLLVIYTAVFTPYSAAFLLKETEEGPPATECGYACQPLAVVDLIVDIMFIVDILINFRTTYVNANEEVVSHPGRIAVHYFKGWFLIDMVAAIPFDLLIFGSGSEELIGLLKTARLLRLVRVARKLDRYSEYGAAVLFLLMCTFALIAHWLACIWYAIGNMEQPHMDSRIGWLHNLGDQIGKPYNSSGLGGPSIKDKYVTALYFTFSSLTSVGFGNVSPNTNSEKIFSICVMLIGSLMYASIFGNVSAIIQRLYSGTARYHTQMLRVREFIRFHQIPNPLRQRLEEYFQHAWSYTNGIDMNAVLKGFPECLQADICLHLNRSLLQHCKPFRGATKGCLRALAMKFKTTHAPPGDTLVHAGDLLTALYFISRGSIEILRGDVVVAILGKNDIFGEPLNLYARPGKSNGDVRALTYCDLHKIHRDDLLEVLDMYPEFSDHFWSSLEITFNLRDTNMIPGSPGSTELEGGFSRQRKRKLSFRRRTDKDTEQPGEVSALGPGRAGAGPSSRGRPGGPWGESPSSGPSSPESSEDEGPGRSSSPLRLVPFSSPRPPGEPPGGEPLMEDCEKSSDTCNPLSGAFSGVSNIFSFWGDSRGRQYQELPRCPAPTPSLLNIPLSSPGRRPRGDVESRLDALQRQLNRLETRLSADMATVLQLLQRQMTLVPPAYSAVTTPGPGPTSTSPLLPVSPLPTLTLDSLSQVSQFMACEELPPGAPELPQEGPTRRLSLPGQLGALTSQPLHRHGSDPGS
Cytochrome P450 2C19, sequence (P33261 whole entry): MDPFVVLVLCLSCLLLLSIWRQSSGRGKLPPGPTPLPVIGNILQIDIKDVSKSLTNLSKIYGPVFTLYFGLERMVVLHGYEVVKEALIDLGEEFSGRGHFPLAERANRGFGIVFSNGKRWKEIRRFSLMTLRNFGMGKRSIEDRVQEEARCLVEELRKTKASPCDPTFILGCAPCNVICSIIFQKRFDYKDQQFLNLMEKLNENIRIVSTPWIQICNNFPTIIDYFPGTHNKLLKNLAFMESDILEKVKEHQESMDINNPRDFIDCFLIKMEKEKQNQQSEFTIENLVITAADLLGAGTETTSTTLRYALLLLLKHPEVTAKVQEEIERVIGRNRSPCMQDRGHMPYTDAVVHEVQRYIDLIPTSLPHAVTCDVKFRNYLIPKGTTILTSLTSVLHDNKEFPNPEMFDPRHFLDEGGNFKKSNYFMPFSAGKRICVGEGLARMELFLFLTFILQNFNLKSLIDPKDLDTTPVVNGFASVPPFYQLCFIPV
Cytochrome P450 2D6, sequence (P10635 whole entry): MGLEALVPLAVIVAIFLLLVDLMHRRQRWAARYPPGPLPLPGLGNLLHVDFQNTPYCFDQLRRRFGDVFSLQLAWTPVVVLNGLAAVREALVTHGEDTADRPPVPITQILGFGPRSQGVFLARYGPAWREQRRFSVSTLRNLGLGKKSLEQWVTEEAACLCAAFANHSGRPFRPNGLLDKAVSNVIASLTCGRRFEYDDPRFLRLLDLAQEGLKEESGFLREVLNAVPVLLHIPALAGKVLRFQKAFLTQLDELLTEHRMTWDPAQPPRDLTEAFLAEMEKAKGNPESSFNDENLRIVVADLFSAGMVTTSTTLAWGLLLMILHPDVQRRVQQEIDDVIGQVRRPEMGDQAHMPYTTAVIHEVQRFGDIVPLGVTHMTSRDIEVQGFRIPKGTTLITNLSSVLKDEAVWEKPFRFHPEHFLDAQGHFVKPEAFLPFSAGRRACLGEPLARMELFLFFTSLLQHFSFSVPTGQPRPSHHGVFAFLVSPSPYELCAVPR
Cytochrome P450 2C9, sequence (P11712 whole entry): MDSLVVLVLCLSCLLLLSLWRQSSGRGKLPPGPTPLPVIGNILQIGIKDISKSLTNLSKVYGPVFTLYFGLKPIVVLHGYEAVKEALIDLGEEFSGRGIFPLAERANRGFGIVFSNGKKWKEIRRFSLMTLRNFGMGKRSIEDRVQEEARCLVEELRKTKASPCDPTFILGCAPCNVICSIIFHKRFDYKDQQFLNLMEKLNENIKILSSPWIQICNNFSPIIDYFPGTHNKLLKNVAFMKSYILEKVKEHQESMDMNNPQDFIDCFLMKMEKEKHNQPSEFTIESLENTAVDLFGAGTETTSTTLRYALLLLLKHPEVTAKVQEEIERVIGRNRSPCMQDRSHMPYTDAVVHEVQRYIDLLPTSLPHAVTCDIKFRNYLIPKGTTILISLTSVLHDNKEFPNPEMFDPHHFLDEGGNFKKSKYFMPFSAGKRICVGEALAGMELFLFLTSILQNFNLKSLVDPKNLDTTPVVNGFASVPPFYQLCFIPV
Cytochrome P450 3A4, sequence (P08684 whole entry): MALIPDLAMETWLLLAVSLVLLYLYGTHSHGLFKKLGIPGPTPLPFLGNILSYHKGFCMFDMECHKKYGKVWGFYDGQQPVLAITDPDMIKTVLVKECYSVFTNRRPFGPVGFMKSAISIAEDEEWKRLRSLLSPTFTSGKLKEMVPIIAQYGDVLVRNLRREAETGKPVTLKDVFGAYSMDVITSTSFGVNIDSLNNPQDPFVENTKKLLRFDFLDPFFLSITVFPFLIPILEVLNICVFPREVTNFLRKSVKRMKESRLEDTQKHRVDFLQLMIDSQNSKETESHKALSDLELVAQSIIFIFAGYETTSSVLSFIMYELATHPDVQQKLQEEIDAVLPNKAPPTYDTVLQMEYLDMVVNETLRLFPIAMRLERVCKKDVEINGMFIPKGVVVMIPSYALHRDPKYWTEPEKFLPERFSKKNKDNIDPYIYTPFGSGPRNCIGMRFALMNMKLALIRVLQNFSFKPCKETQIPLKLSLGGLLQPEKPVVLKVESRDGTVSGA

Usually IC50 stands for the concentration that gives 50% inhibition. `CN1CCN(C(=O)c2ccc3c(c2)N(Cc2c(F)cccc2Cl)C(=O)c2ccccc2S3)CC1`: the IC50 in the data set with Plasmodium falciparum [1] was 7.3 nM; in the data set with Plasmodium falciparum [2], 16.9 nM; in the data set on Plasmodium falciparum [3] it was 8.42 nM; in the data set with Plasmodium falciparum [4], 1040 nM; in the data set on Plasmodium falciparum [5], 3.16 nM.

Turning to `Cc1nc2c(C#N)cccc2n1-c1ccc(C(=O)NC2CC2)s1`, the IC50 came out at 5.79 nM with Plasmodium falciparum [1]; 76.8 nM with Plasmodium falciparum [2]; 16.2 nM in the data set on Plasmodium falciparum [3]; 5.07 nM with Plasmodium falciparum [4]; 9.94 nM in the data set with Plasmodium falciparum [5].

For orientation: solubility means how much of the substance goes into solution per volume. As a reminder, the logD is the decadic logarithm of the distribution of all forms, ionised or not, between an organic phase and buffer at a given pH. A high value points to higher lipophilicity. The fraction unbound is free concentration divided by total concentration. A higher fraction unbound goes with much free substance. With `CN1CCN(c2ccc3nc(N)n(CC(O)c4ccc(C(F)(F)F)cc4Cl)c3n2)CC1` (racemic), the selectivity ratio in data set [6] is 348. In addition, the IC50 was 12200 nM in data set [7]; 14100 nM on Cytochrome P450 3A4; 27900 nM against Cytochrome P450 2D6; > 30000 nM against Cytochrome P450 2C9; 5000 nM at Cytochrome P450 2C19; > 30000 nM at Cytochrome P450 1A2. The IC50 stood at 37.9 nM in the data set on Plasmodium falciparum [14]; 156 nM in the data set with Plasmodium falciparum [15]; 220 nM with Plasmodium falciparum [16]; 370 nM in the data set with Plasmodium falciparum [17]; 89 nM in the data set with Plasmodium falciparum [18]; 85 nM with Plasmodium falciparum [19]. Moreover, the hepatocyte CLint in data set [8] was 106 µL/min/1e6 cells. In addition, the microsomal CLint in data set [9] was found to be 21 µL/min/mg; in data set [10], 102 µL/min/mg. Moreover, in data set [11], the solubility came out at 118 µM (≈ 53.7 µg/mL). The same compound had a logD in [12] of 2.8. This compound also gave a fraction unbound in data set [13] of 0.234.

Take `Nc1nc2ccc(OCC(F)(F)F)nc2n1CC(O)c1ccc(C(F)(F)F)cc1Cl` (racemic): the IC50 is 24.6 nM with Plasmodium falciparum [1]; 19.7 nM in the data set with Plasmodium falciparum [2]; 34.1 nM in the data set on Plasmodium falciparum [3]; 16.4 nM in the data set with Plasmodium falciparum [4]; 11.8 nM with Plasmodium falciparum [5]; > 33300 nM in [7]. Further, the IC50 in the data set with Plasmodium falciparum [14] was 12 nM; in the data set with Plasmodium falciparum [15], 62 nM; in the data set on Plasmodium falciparum [16], 178 nM; in the data set on Plasmodium falciparum [17], 135 nM; in the data set on Plasmodium falciparum [18] it was 43 nM; in the data set on Plasmodium falciparum [19], 10 nM. In addition, the result in the data set on Plasmodium falciparum [20] was Active. For the same compound, the selectivity ratio in [6] was found to be 232. Further, the hepatocyte CLint in data set [8] turned out to be 36 µL/min/1e6 cells. Besides, the microsomal CLint in data set [9] worked out at 45 µL/min/mg; in [10], 21 µL/min/mg.

For the compound `Nc1nc2ccc(OC3CCOC3)nc2n1CC(O)c1ccc(C(F)(F)F)cc1Cl` (racemic), the outcome in the data set on Plasmodium falciparum [20] was Active. Moreover, the selectivity ratio in data set [6] was found to be 800. For the same compound, the IC50 was 16600 nM in data set [7]; 2400 nM at Cytochrome P450 3A4; 12500 nM against Cytochrome P450 2D6; > 30000 nM at Cytochrome P450 2C9; 780 nM at Cytochrome P450 2C19; > 30000 nM against Cytochrome P450 1A2. Also, the IC50 in the data set on Plasmodium falciparum [18] stood at 25 nM; in the data set on Plasmodium falciparum [19], 18 nM. The hepatocyte CLint in [8] was 105 µL/min/1e6 cells. Also, the microsomal CLint came out at 76 µL/min/mg in data set [9] and 90 µL/min/mg in data set [10]. For the same compound, the solubility in data set [11] amounted to 160 µM (≈ 70.9 µg/mL). The logD in data set [12] worked out at 3.7. In data set [13], the fraction unbound stood at 0.026.

As for `C[C@@H]1CC[C@H]2[C@@H](C)C(=O)O[C@@H]3O[C@@]4(C)CC[C@@H]1[C@]32OO4` [ARTEMISININ], the IC50 in the data set on Plasmodium falciparum [1] came out at 1.51 nM; with Plasmodium falciparum [2] it was 1.81 nM; in the data set with Plasmodium falciparum [3] it was 1.29 nM; with Plasmodium falciparum [4], 1.84 nM; in the data set with Plasmodium falciparum [5] it was 1.26 nM; in the data set with Plasmodium falciparum [14], 1.3 nM. For the same compound, the IC50 worked out at 6.52 nM with Plasmodium falciparum [15]; 16.6 nM in the data set with Plasmodium falciparum [16]; 10.3 nM in the data set with Plasmodium falciparum [17]; 7.05 nM in the data set with Plasmodium falciparum [18]; 6.47 nM with Plasmodium falciparum [19].

As for `CCN(CC)CCCC(C)Nc1ccnc2cc(Cl)ccc12` (centres undefined) [CHLOROQUINE], the Survival in the data set with Plasmodium berghei was determined as 27 days.

Values taken from ChEMBL document CHEMBL3286148, “Aminoazabenzimidazoles, a novel class of orally active antimalarial agents” (J Med Chem, 2014).
